12 compounds from ChEMBL document CHEMBL1201862, “PubChem BioAssay data set” (2004) can be followed below.

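48-hour exposure; five concentrations; linearly interpolated endpoints. GI50 marks 50% less growth.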 Active and inactive are the calls of the source. Cut-off read from the data, not from the text of the source: active = GI50 up to about 1.1 µM and inactive = higher. Bounds are passed on as bounds.

What all share (test): NCI-60 cell line screen, 48 h
In assay [1] the test system is KM12.
Assay [2] has as its system OVCAR-3.
In assay [3] the test system is ACHN.
The subject of assay [4] is A549.
Assay [5] concerns SN12C.
Assay [6] relates to RXF 393.
Assay [7] relates to HOP-92.
Assay [8] concerns SK-OV-3.
In assay [9] the test system is NCI-H226.
For assay [10], the system named is M14.
The test system of assay [11] is UACC-257.
The test system of assay [12] is SF-539.
In assay [13] the test system is UO-31.
Assay [14] has as its system MOLT-4.
Assay [15] deals with SW-620.
In assay [16] the test system is OVCAR-5.
The test system of assay [17] is SNB-75.
In assay [18] the test system is SK-MEL-28.

As for `O=C(Nc1cc(Cl)c(Cl)cc1Cl)C(=O)C(C(=O)c1ccc(Cl)c(Cl)c1)C1OC(=O)c2ccccc21` (stereo not drawn), the GI50 is 16.6 µM (inactive) in [1]; 13.7 µM (inactive) in [2]; 14.5 µM (inactive) in assay [3]; 28.7 µM (inactive) in [4]; 21.6 µM (inactive) in assay [5]; 8.3 µM (inactive) in assay [6]. The GI50 was 11 µM (inactive) in assay [7]; 26.1 µM (inactive) in [8]; 7.45 µM (inactive) in assay [9]; 13.5 µM (inactive) in assay [10]; 13.9 µM (inactive) in assay [11]; 2.67 µM (inactive) in assay [12]. Further, the GI50 in [13] was 16.8 µM (inactive); in assay [14], 0.187 µM (active); in assay [15], 15.6 µM (inactive); in [16], 11.1 µM (inactive).

For the compound `CC(C)(C)C1=Nc2c(Br)cc(C(C)(C)C)cc2C(C(F)(F)F)(C(F)(F)F)O1`, the GI50 was > 100 µM (inactive) in assay [1]; > 100 µM (inactive) in assay [17]; 17 µM (inactive) in [2]; 45 µM (inactive) in [3]; 43.4 µM (inactive) in assay [4]; 38.4 µM (inactive) in assay [5]. Besides, the GI50 in assay [6] was 22.5 µM (inactive); in [8], > 100 µM (inactive); in assay [18], 32.7 µM (inactive); in assay [10], > 100 µM (inactive); in [11] it was 48 µM (inactive); in [12], 37.8 µM (inactive). Also, the GI50 in assay [13] was 47.2 µM (inactive); in assay [14], 45.8 µM (inactive); in [15], 46.7 µM (inactive); in assay [16], > 100 µM (inactive).

Regarding `O=c1oc2c3ccc4ccccc4c3n(CCCN3CCCCC3)c2c2ccccc12`, the GI50 was 26.5 µM (inactive) in assay [1]; 52.2 µM (inactive) in [17]; > 100 µM (inactive) in [2]; > 100 µM (inactive) in assay [3]; 34 µM (inactive) in assay [4]; > 100 µM (inactive) in assay [7]. Also, the GI50 in [8] is > 100 µM (inactive); in [18], 19.1 µM (inactive); in assay [10] it was 11.5 µM (inactive); in assay [11] it was 33.6 µM (inactive); in assay [12], 19.4 µM (inactive); in assay [13], > 100 µM (inactive). Further, the values for the GI50 in assay [14], in assay [15] and in assay [16] were 3.24 µM (inactive), 5.62 µM (inactive) and > 100 µM (inactive), respectively.

Consider `Cc1ccc(S(=O)(=O)N/N=C(/CC(=O)c2c(C)[n+]([O-])c3ccccc3[n+]2[O-])C(=O)Nc2ccc(C)c(C)c2)cc1`, for which the GI50 is 28.2 µM (inactive) in assay [1]; > 100 µM (inactive) in [17]; 16.5 µM (inactive) in [2]; 25.1 µM (inactive) in [3]; > 100 µM (inactive) in assay [4]; 34 µM (inactive) in assay [5]. In addition, the GI50 is > 100 µM (inactive) in assay [6]; > 100 µM (inactive) in assay [8]; > 100 µM (inactive) in assay [18]; > 100 µM (inactive) in assay [9]; > 100 µM (inactive) in assay [10]; 87.1 µM (inactive) in assay [11]. Moreover, the GI50 in [12] is > 100 µM (inactive); in [13], > 100 µM (inactive); in assay [15], 33.7 µM (inactive); in assay [16], 88.7 µM (inactive).

For the compound `O=C1c2ccccc2C2(O)N(c3ccccc3)C(=S)N(c3ccccc3)C12O` (stereo not drawn), the GI50 in [1], in assay [17], in [2], in assay [3], in assay [4] and in assay [5] was > 100 µM (inactive) throughout. The GI50 in [6], in [8], in [18], in assay [9], in assay [10] and in [11] was > 100 µM (inactive) throughout. The GI50 in assay [12] was > 100 µM (inactive); in [13], 92.7 µM (inactive); in assay [14], > 100 µM (inactive); in assay [15], > 100 µM (inactive); in assay [16] it was > 100 µM (inactive).

As for `Cc1ccccc1/C=C/C(=O)c1ccccc1`, the GI50 in [1] was 23.3 µM (inactive); in [17], 19.5 µM (inactive); in assay [2], 17.3 µM (inactive); in [3], 18.8 µM (inactive); in assay [4], 22.5 µM (inactive); in assay [5] it was > 10 µM (inactive). The GI50 in assay [7] was 20.5 µM (inactive); in assay [8], 27.4 µM (inactive); in assay [18] it was 18.7 µM (inactive); in [9], 20.5 µM (inactive); in assay [10] it was 16.1 µM (inactive); in assay [11], 22.5 µM (inactive). In addition, the GI50 in assay [12] was 15.1 µM (inactive); in assay [13], 21.7 µM (inactive); in [14], 18.7 µM (inactive); in assay [15], > 10 µM (inactive); in assay [16], 16.3 µM (inactive).

On to `COc1ccccc1NC(=O)C1=C(C)NC(C)=C(C(=O)Nc2ccccc2OC)C1C1=CC=COC1`, for which the GI50 is 9.14 µM (inactive) in assay [1]; 23 µM (inactive) in assay [17]; 3.11 µM (inactive) in [2]; 9.23 µM (inactive) in [3]; 18.5 µM (inactive) in [4]; 60.7 µM (inactive) in assay [5]. In addition, the GI50 was 25.9 µM (inactive) in assay [7]; 10.4 µM (inactive) in assay [8]; 18.8 µM (inactive) in assay [18]; > 100 µM (inactive) in assay [9]; 5.2 µM (inactive) in assay [10]; 13.6 µM (inactive) in [11]. Besides, the GI50 in assay [12] was 12.2 µM (inactive); in [13], 25.9 µM (inactive); in assay [14], 13.3 µM (inactive); in [15], 6.7 µM (inactive); in assay [16], 36.4 µM (inactive).

Turning to `CC1(c2cccc(C3CC4(CCC3=O)OCCCCO4)c2)OCCO1` (stereo not drawn), the GI50 in assay [1] is > 100 µM (inactive); in [17] it was 92.7 µM (inactive); in [2], > 100 µM (inactive); in assay [3], > 100 µM (inactive); in assay [4], > 100 µM (inactive); in [5], > 100 µM (inactive). Moreover, the GI50 in assay [8], in [18], in assay [9], in assay [10], in assay [11] and in [12] was > 100 µM (inactive) in each case. Further, the GI50 in [13], in assay [14], in assay [15] and in [16] was > 100 µM (inactive) in each case.

As to `COc1ccc(OC)c2cc(C3(C)SCCCS3)ccc12`, the GI50 in [1] is > 100 µM (inactive); in assay [17] it was 56.6 µM (inactive); in [2], > 100 µM (inactive); in assay [3], > 100 µM (inactive); in [4] it was > 100 µM (inactive); in assay [5] it was > 100 µM (inactive). In addition, the GI50 was 20.5 µM (inactive) in assay [6]; > 100 µM (inactive) in assay [8]; > 100 µM (inactive) in [18]; 65 µM (inactive) in [10]; > 100 µM (inactive) in assay [11]; > 100 µM (inactive) in assay [12]. The GI50 was > 100 µM (inactive) in assay [13], 89.7 µM (inactive) in [14], > 100 µM (inactive) in assay [15] and > 100 µM (inactive) in [16].

Turning to `O=C(NC1CC1)c1c(O)[nH]c(=S)[nH]c1=O`, the GI50 in [1], in assay [17], in assay [2], in [3], in assay [4] and in assay [5] was > 100 µM (inactive) throughout. Also, the GI50 in assay [7], in assay [8], in assay [18], in assay [9], in assay [10] and in assay [11] was > 100 µM (inactive) throughout. In addition, the GI50 in assay [12], in assay [13], in assay [14], in assay [15] and in [16] was > 100 µM (inactive) each time.

For the compound `COc1ncn(C2C=C(CO)C(O)C2O)c(=O)n1` (stereo not drawn), the GI50 in [1], in assay [17], in [2], in assay [3], in [4] and in [5] was > 100 µM (inactive) each time. Also, the GI50 in assay [6], in [8], in assay [18], in [9], in [10] and in assay [11] was > 100 µM (inactive) throughout. Moreover, the GI50 was > 100 µM (inactive) in [12], > 100 µM (inactive) in assay [13], > 100 µM (inactive) in assay [14] and < 0.01 µM (active) in [15].

Regarding `O=C(N/N=C/c1cccc(F)c1)c1ccncc1`, the GI50 in assay [1], in [17], in assay [3], in [4], in [5] and in [6] was > 100 µM (inactive) in each case. Besides, the GI50 in assay [7] is > 100 µM (inactive); in assay [8], > 100 µM (inactive); in assay [18], > 100 µM (inactive); in assay [9], 0.056 µM (active); in [10] it was > 100 µM (inactive); in assay [11] it was > 100 µM (inactive). The GI50 in assay [14] and in [15] was > 100 µM (inactive) in each case.
